Measurements reported in patent publication US4479963A, “1-Carboxyalkanoylindoline-2-carboxylic acids” (Ciba-Geigy Corporation, priority 1982, dated 1984).

Tests used:
[1] = system: angiotensin I converting enzyme; assay: inhibition of pressor response following angiotensin I challenge in the dog; assay type: in vivo; conditions: oral dose of 10 mg/Kg
[2] = system: spontaneous hypertensive rat; assay: blood pressure and heart rate in the spontaneous hypertensive rat; assay type: in vivo
Description: The in vivo lowering effect on the blood pressure is recorded either directly by means of a catheter, for example placed in the dog's femoral artery, or indirectly by sphygmomanometry at the rat's tail, and a transducer, expressing the blood pressure prior and after dosing in mm Hg. Thus, for example, representative members of the compounds of this invention, illustrated by the Examples herein, are very effective in hypertensive rats and dogs at p.o.-doses as low or lower than 50 mg/kg/day.

[3] = system: angiotensin I converting enzyme; assay: inhibition of pressor response following angiotensin I challenge in normotensive rats; assay type: in vivo; conditions: rat
Description: The inhibition of said enzyme prevents the generation of angiotensin II from I and, therefore, attenuates any pressure response following an angiotensin I challenge.
The corresponding in vivo test is performed with male, normotensive rats, which are anesthetized with 100-120 mg/kg i.p. of sodium ethyl-(1-methylpropyl)malonylthiourea. A femoral artery and saphenous vein are cannulated for direct blood pressure measurement and i.v. administration of angiotensin I and compounds of this invention. After the basal blood pressure is stabilized, pressor responses to 3 challenges of 0.33 μg/kg of angiotensin I i.v., in 5 minute intervals, are obtained. Such pressure responses are again obtained 5, 10, 15, 30 and 60 minutes after either i.v., or p.o. administration (stomach tube) of the compounds to be tested, and compared with the initial responses.

[4] = target: T1, angiotensin-converting enzyme (Oryctolagus cuniculus, UniProt P12822); assay: in vitro inhibition of the angiotensin-converting enzyme; assay type: biochemical, rabbit; conditions: hippuryl-histidyl-leucine substrate, 37°, 30 minutes; enzyme from lungs of adult male rabbits
T1 construct: freshly prepared from lungs of adult male rabbits; from tissue; host or cells: lungs of adult male rabbits
T1 sequence (P12822 34-1310): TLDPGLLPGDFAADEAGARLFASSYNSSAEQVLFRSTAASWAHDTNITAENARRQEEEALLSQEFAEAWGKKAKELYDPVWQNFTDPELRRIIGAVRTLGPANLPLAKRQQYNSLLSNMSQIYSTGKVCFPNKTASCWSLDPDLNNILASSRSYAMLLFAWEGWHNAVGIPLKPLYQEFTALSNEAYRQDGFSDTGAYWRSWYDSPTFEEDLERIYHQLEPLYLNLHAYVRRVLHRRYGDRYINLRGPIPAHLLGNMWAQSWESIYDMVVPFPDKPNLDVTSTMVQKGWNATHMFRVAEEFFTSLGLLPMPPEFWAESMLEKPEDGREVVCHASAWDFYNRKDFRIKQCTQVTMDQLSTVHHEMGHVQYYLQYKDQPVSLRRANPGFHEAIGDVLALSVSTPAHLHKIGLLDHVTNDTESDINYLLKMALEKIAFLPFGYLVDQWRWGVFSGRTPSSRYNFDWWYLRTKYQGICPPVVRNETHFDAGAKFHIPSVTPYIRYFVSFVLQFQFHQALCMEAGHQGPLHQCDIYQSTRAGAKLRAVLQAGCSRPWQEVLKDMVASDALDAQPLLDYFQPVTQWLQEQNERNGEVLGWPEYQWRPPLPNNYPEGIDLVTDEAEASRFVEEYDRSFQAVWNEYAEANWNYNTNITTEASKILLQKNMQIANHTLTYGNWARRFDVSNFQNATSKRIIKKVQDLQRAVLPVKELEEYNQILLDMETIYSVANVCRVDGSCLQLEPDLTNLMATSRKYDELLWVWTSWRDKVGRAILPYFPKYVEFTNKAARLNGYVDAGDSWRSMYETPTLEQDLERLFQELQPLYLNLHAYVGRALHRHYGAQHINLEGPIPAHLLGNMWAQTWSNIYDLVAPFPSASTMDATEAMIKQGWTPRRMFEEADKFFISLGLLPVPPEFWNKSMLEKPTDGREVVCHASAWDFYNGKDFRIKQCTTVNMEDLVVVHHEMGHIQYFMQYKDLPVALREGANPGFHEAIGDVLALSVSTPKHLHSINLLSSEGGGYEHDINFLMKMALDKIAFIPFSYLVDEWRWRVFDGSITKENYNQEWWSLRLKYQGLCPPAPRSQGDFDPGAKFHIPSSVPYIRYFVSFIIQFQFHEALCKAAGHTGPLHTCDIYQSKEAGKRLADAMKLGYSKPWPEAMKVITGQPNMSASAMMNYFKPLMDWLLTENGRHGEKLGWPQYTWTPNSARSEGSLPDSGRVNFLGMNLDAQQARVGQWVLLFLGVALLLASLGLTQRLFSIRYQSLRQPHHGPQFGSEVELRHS
Description: Biophys. Acta 293, 451 (1973). According to this method said compounds are dissolved at about 1 mM concentrations in phosphate buffer, externally cooled with ice. […] Said solutions are incubated at 37° for 30 minutes and combined with 0.75 ml of 0.6 N aqueous sodium hydroxide to stop further reaction. Then 100 μl of o-phthalaldehyde are added at room temperature, and 10 minutes later 100 μl of 6N hydrochloric acid. These samples are read against water in a spectrophotometer set at 360 nm, and the optical densities thereof estimated. They are corrected for the standard curve via a conversion factor expressing nanomoles of histidyl-leucine formed during said 30 minute incubation period. The results are plotted against drug concentration to determine the IC50, i.e., the drug concentration which gives half the activity of the control sample containing no drug.

SMILES: C[C@H](C[C@@H](C)C(=O)N1c2ccccc2C[C@H]1C(=O)O)C(=O)OCC(=O)OC1CC2CCC1(C)C2(C)C (stereo partly drawn) [1-4-(l-bornyloxycarbonylmethoxycarbonyl)-2R,4R-dimethylbutanoyl-indoline-2S-carboxylic acid]
- inhibition of the pressor response following angiotensin I challenge [1]: inhibit the pressor response

SMILES: CCOC(=O)[C@H](C)C[C@@H](C)C(=O)N1c2ccccc2C[C@H]1C(=O)O [1-(4-carboethoxy-2R,4R-dimethylbutanoyl)-indoline-2S-carboxylic acid]
- decrease of heart rate ([2]; 30 mg/Kg p.o.): decrease heart rate
- lowering of blood pressure ([2]; 30 mg/Kg p.o.): significantly lower blood pressure
- inhibition of the pressor response following angiotensin I challenge ([3]; dose as low as 0.3 mg/Kg i.v.): about 50%
- inhibition of the pressor response following angiotensin I challenge ([3]; dose as low as 4 mg/Kg p.o.): about 50%

SMILES: CCOC(=O)[C@H](CCc1ccccc1)C[C@@H](C)C(=O)N1c2ccccc2C[C@H]1C(=O)O [1-(4-carboethoxy-2R-methyl-4R-phenethylbutanoyl)indoline-2S-carboxylic acid]
- decrease of heart rate ([2]; 10 mg/Kg p.o.): decrease heart rate
- lowering of blood pressure ([2]; 10 mg/Kg p.o.): significantly lower blood pressure

SMILES: C[C@H](C[C@@H](C)C(=O)N1c2ccccc2C[C@H]1C(=O)O)C(=O)O [1-(4-carboxy-2R,4R-dimethylbutanoyl)-indoline-2S-carboxylic acid]
- IC50 [4]: ~30 nM

SMILES: C[C@H](C[C@@H](CCc1ccccc1)C(=O)O)C(=O)N1c2ccccc2C[C@H]1C(=O)O [1-(4-carboxy-2R-methyl-4R-phenethylbutanoyl)indoline-2S-carboxylic acid]
- IC50 [4]: ~5 nM

SMILES: C[C@H](CCC(=O)O)C(=O)N1c2ccccc2C[C@H]1C(=O)O [1-(4-carboxy-2R-methylbutanoyl)-indoline-2S-carboxylic acid]
- IC50 [4]: ~40 nM

SMILES: O=C(O)CCCC(=O)N1c2ccccc2C[C@H]1C(=O)O [1-(4-carboxybutanoyl)-indoline-2S-carboxylic acid]
- IC50 [4]: ~300 nM

SMILES: C[C@H](C[C@@H](C)C(=O)N1c2ccccc2C[C@H]1C(=O)O)C(=O)OCOC(=O)C(C)(C)C [1-[4-(pivaloyloxymethoxycarbonyl)-2R,4R-dimethylbutanoyl]-indoline-2S-carboxylic acid]
- inhibition of the pressor response following angiotensin I challenge [1]: inhibit the pressor response
